Data on 1 compound can be found in PMC4728427, “Mechanism of allosteric activation of TMEM16A/ANO1 channels by a commonly used chloride channel blocker” (British Journal of Pharmacology, 2016).

This test has as its target T1, Mouse TMEM16A (Mus musculus, UniProt Q8BHY3).
T1 construct: expressed in transfected cells; host or cells: HEK-293T
T1 sequence (Q8BHY3 1-960): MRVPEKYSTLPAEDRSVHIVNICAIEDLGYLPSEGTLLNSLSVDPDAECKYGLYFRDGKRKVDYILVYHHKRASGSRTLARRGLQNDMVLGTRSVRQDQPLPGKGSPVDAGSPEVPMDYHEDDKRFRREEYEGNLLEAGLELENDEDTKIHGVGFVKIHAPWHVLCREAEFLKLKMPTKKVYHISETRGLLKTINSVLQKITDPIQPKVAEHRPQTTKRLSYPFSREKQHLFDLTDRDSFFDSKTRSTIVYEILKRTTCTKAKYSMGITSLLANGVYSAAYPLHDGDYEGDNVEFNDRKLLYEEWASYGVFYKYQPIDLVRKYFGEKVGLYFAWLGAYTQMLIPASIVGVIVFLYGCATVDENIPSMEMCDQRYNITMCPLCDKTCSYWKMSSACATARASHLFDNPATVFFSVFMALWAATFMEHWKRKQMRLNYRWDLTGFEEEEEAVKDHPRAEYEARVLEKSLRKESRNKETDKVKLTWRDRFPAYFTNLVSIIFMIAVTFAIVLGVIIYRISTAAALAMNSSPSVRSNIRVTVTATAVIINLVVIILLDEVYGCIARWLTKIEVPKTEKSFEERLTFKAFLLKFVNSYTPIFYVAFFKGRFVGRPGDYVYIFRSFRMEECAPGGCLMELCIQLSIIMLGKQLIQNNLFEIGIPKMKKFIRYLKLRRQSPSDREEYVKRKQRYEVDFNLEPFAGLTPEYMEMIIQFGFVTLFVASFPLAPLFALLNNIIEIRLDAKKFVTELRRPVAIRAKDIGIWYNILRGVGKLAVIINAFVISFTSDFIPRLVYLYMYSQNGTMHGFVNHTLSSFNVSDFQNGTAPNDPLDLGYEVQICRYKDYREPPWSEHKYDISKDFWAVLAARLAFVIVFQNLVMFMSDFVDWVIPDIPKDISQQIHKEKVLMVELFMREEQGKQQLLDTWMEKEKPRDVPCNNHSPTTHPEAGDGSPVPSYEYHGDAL
Nature of the test: Whole-cell concentration-jump protocol separating A9C block and activation, 300 nM [Ca2+]i. Type of test: cell-based. The note with it: for Ki: read-out: K i(0); for I a/I 0 for activation / fractional inhibition (I b/I 0): 30 μM [A9C]ext, +70 mV; for EC50 / IC50: [A9C]ext; for EC50: read-out: EC50 (b) activation; for IC50: read-out: IC50 (a) inhibition. On the procedure: TMEM16A currents were measured with the whole‐cell or inside‐out patch configuration of the patch‐clamp technique as detailed in the Supporting Information. The exchange of solutions was achieved by using a local perfusion system consisting of eight tubes of 1.2 mm diameter in which the tip of the patch pipette was inserted. In some experiments, ultra‐rapid (<50 ms) changes in A9C concentration ([A9C]) (‘concentration jumps’) were achieved using a computer‐controlled perfusion system (Warner Instruments, Hamden, CT, USA).
The relationship between [A9C] and TMEM16A current inhibition was obtained by measuring the currents at the end of 250 ms V m steps from +20 to +120 mV in 20 mV increments elicited every 2 s from a holding V m of −70 mV. TMEM16A currents measured in the presence of A9C (I b) were normalized to currents measured in the absence of A9C (I 0) and plotted against [A9C]. The concentration–response curves obtained were fit with the Hill equation of the form: (1) Ib/Io=1/1+A9C/Ki^γ,
where K i is the apparent A9C dissociation constant from the inhibitory site and γ is the coefficient of cooperativity (Hill coefficient).
The dose–response curves for activation by A9C were fitted with a modified Hill equation of the form: (2) Ia/Io=1+Amax−1/1+A9C/Kd^h,
where I a is the current in the presence of A9C, A max is the maximal current activation, K d is the apparent A9C dissociation constant from the activating site and h is the coefficient of cooperativity (Hill coefficient).
The relationships between the K i or K d and V m were fitted with the Woodhull equation (Woodhull, 1973): (3) Kx=Kx0exp−δxzFVm/RT.
The subscript ‘x’ stands for either ‘i’ or ‘d’. Thus, K i(0) or K d(0) are the apparent A9C dissociation constants from the inhibitory or activating site at 0 mV, z is the A9C electric valence (−1), δ i or δ d is the fraction of the V m sensed by A9C when bound to the inhibitory or activating site, F is Faraday's constant, R is the universal gas constant and T is the absolute temperature.
To study the activating effect of extracellular A9C on TMEM16A currents in isolation from A9C‐mediated inhibition, the following stimulation protocol was used. Whole‐cell currents were measured in response to a constant V m of +70 mV and in the presence of 300 nM [Ca^2+]i. Under these recording conditions and in the absence of extracellular A9C, the TMEM16A current remained at a constant amplitude (Figure 5A). When A9C was rapidly applied to the bath solution (concentration jump), the current amplitude rapidly declined before increasing to a new steady‐state level (Figure 5A and 5B). As A9C was removed, a dramatic increase in current was observed followed by a rapid return of the current to the level measured in the absence of A9C (Figure 5A and 5B). […] Rapid washout of A9C led to the fast relief of channel block, while the allosteric activating effect appeared to persist. Thus, the inhibitory effect of A9C was estimated by back‐extrapolating the current amplitude (I b) to the point when the drug was added. The current activation (I a) was measured via back‐extrapolation of the transient current spike observed upon drug washout.
Each cell was exposed to various [A9C]ext, and the extent of blockage at each concentration expressed as I b/I 0. The extent of current activation at each [A9C]ext was assessed as I a/I 0.
To determine if the activating effect of [A9C]ext on the TMEM16A current is V m‐dependent, experiments similar to those described above were performed at constant V m of +10 and +40 mV (Figure 5C). From the average data presented in Figure 5C and Table 2, it can be concluded that both inhibition and activation are V m‐dependent.
As outlined in the previous section, the current inhibition and activation induced by extracellular A9C presented a very similar degree of V m‐dependence. […]

The mark [1] stands for this setting: high (154 mM) [Cl−]ext, 300 nM [Ca2+]i.
Setting [2] is: low (34 mM) [Cl−]ext, 300 nM [Ca2+]i.

Where two headings read alike, the source gives them in different places.

By EC50 is commonly meant the concentration at which the effect is half-maximal. The IC50 is the concentration that inhibits the measured activity by half.

Consider `O=C(O)c1c2ccccc2cc2ccccc12` [A9C, Anthracene‐9‐carboxylic acid], for which, where the note is “300 nM [Ca2+]i (rounded in Discussion)”, the Ki was approximately 8.4 mM. Further, under “300 nM [Ca2+]i, Woodhull fit”, the δ d is reported as 0.66 ± 0.03 and the δ i worked out at 0.68 ± 0.03. The Kd (300 nM [Ca2+]i, extracellular A9C, Woodhull fit, read-out: K d(0) (apparent dissociation constant from activating site at 0 mV)) stood at 8.95 ± 0.378 mM. Besides, the Ki (300 nM [Ca2+]i, extracellular A9C, Woodhull fit) is 8.37 ± 0.372 mM. Under setting [1], the “I a/I 0 for activation” value was found to be 2.0 ± 0.1 and the “fractional inhibition (I b/I 0)” value was 0.70 ± 0.02. In addition, under setting [2], the “I a/I 0 for activation” value is 8.2 ± 1.1 and the “fractional inhibition (I b/I 0)” value stood at 0.46 ± 0.06. Where the note is “V m 10 mV, 300 nM [Ca2+]i”, the “h (b) Hill coefficient (activation)” value is listed as 1.1 ± 0.1 (n = 9), the “γ (a) Hill coefficient (inhibition)” value is 0.4 ± 0.1 (n = 9), the EC50 stood at 5.23 ± 0.582 mM and the IC50 was determined as 4.71 ± 0.478 mM. For the setting “V m 40 mV, 300 nM [Ca2+]i”, the “h (b) Hill coefficient (activation)” value is reported as 1.2 ± 0.1 (n = 11), the “γ (a) Hill coefficient (inhibition)” value is listed as 0.4 ± 0.1 (n = 11), the 50% effective concentration (EC50) came to 1.12 ± 0.126 mM and the IC50 is 0.849 ± 0.14 mM. Where the note is “V m 70 mV, 300 nM [Ca2+]i”, the “h (b) Hill coefficient (activation)” value is recorded as 1.1 ± 0.1 (n = 11), the “γ (a) Hill coefficient (inhibition)” value was 0.4 ± 0.1 (n = 11), the EC50 stood at 0.44 ± 0.069 mM and the IC50 is 0.171 ± 0.021 mM. The “electric distance of activating binding site (δ d)” value (Woodhull analysis, rounded) is ~ 0.6.
